The source made the active and inactive calls. The calls are words filed in the database; no cut-off is given here.
Assays:
[1] = Octanol-water partition coefficient, logP of compound incubated for 24 hrs under shaking condition; format: physicochemical
[2] = Drug localization in peripheral edge of Escherichia coli at 10 uM incubated for 30 mins by fluorescent dye based confocal microscopic analysis; format: ADME; settings: 0.5 h
[3] = Drug uptake in human HaCaT cells at 5 uM measured after 10 to 30 mins by fluorescence based confocal laser scanning microscopic analysis; format: ADME, cell-based; settings: time 10-30 min
Cell membrane [4] = experiment: Disruption of cell membrane integrity in Staphylococcus aureus at 2 uM irradiated with 6J/cm2 light followed by compound exposure for 10 mins by FL-4L/propidium iodide Live/dead staining based laser confocal microscopic analysis
[5] = Induction of singlet oxygen generation in DPBF solution assessed as singlet oxygen quantum yield irradiated with 80 mW/cm2 light by DPBF-based assay; format: functional
Staphylococcus aureus [6] = experiment: Photodynamic antibacterial activity against Staphylococcus aureus assessed as bacterial eradication preincubated for 20 mins in dark condition followed by 18 J/cm2 LED light irradiation and measured after 18 hrs by broth microdilution method; format: functional; settings: light or radiation study, 18.33 h, time 1100 min
Escherichia coli [7] = experiment: Photodynamic antibacterial activity against Escherichia coli assessed as bacterial eradication preincubated for 20 mins in dark condition followed by 18 J/cm2 LED light irradiation and measured after 18 hrs by broth microdilution method; format: functional; settings: light or radiation study, 18.33 h, time 1100 min
Candida albicans [8] = experiment: Photodynamic antifungal activity against Candida albicans assessed as fungal eradication preincubated for 20 mins in dark condition followed by 18 J/cm2 LED light irradiation and measured after 18 hrs by broth microdilution method; format: functional; settings: light or radiation study, 18.33 h, time 1100 min
Staphylococcus aureus [9] = experiment: Photodynamic antibacterial activity against methicillin resistant Staphylococcus aureus assessed as bacterial eradication preincubated for 20 mins in dark condition followed by 18 J/cm2 LED light irradiation and measured after 18 hrs by broth microdilution method; format: functional; settings: light or radiation study, 18.33 h, time 1100 min
Staphylococcus aureus [10] = experiment: Binding affinity to Staphylococcus aureus cell wall assessed as bound fraction at 25 uM measured after 3 to 10 mins; settings: time 3-10 min
Escherichia coli [11] = experiment: Binding affinity to Escherichia coli cell wall assessed as bound fraction at 25 uM measured after 3 to 10 mins; settings: time 3-10 min
Candida albicans [12] = experiment: Binding affinity to Candida albicans cell wall assessed as bound fraction at 25 uM measured after 3 to 10 mins; settings: time 3-10 min
Staphylococcus aureus [13] = experiment: Binding affinity to Staphylococcus aureus cell wall at 50 uM preincubated with 12.5 to 50 mM Ca2+ for 30 mins followed by incubation with compound for 30 mins
Escherichia coli [14] = experiment: Binding affinity to Escherichia coli cell wall at 50 uM preincubated with 12.5 to 50 mM Ca2+ for 30 mins followed by incubation with compound for 30 mins
Candida albicans [15] = experiment: Binding affinity to Candida albicans cell wall at 50 uM preincubated with 12.5 to 50 mM Ca2+ for 30 mins followed by incubation with compound for 30 mins
Cell membrane [16] = experiment: Disruption of cell membrane integrity in Escherichia coli at 2 uM irradiated with 6J/cm2 light followed by compound exposure for 10 mins by FL-4L/propidium iodide Live/dead staining based laser confocal microscopic analysis
Candida albicans [17] = experiment: Disruption of cell membrane integrity in Candida albicans at 2 uM irradiated with 6J/cm2 light followed by compound exposure for 10 mins by FL-4L/propidium iodide Live/dead staining based laser confocal microscopic analysis
Staphylococcus aureus [18] = experiment: Antibacterial activity against Staphylococcus aureus up to 80 uM by broth microdilution method; format: functional, organism-based; settings: dose microM <=80
Escherichia coli [19] = experiment: Antibacterial activity against Escherichia coli up to 80 uM by broth microdilution method; format: functional, organism-based; settings: dose microM <=80
Candida albicans [20] = experiment: Antifungal activity against Candida albicans up to 80 uM by broth microdilution method; format: functional, organism-based; settings: dose microM <=80
Staphylococcus aureus [21] = experiment: Antibacterial activity against methicillin resistant Staphylococcus aureus up to 80 uM by broth microdilution method; format: functional, organism-based; settings: dose microM <=80
Cell membrane [22] = experiment: Binding affinity to Staphylococcus aureus cell membrane assessed as reduction in zeta potential by zetasizer-based analysis; format: subcellular
Cell membrane [23] = experiment: Binding affinity to Escherichia coli cell membrane assessed as reduction in zeta potential by zetasizer-based analysis; format: subcellular
Staphylococcus aureus [24] = experiment: Photodynamic antimicrobial activity against Staphylococcus aureus preincubated for 10 mins in dark followed by irradiation with 6J/cm2 light and measured after incubation for 36 to 48 hrs; format: functional, organism-based; settings: dose 3-18 µM, time 2170-2890 min
Escherichia coli [25] = experiment: Photodynamic antimicrobial activity against Escherichia coli preincubated for 10 mins in dark followed by irradiation with 6J/cm2 light and measured after incubation for 36 to 48 hrs; format: functional, organism-based; settings: dose 2-10 µM, time 2170-2890 min
Candida albicans [26] = experiment: Photodynamic antimicrobial activity against Candida albicans preincubated for 10 mins in dark followed by irradiation with 9J/cm2 light and measured after incubation for 36 to 48 hrs; format: functional, organism-based; settings: dose 2-10 µM, time 2170-2890 min
Staphylococcus aureus [27] = experiment: Photodynamic antimicrobial activity against methicillin resistant Staphylococcus aureus preincubated for 10 mins in dark followed by irradiation with 6J/cm2 light and measured after incubation for 36 to 48 hrs; format: functional, organism-based; settings: dose 2-10 µM, time 2170-2890 min
Staphylococcus aureus [28] = experiment: Antimicrobial activity against Staphylococcus aureus incubated for 36 to 48 hrs under dark conditions; format: functional, organism-based; settings: time 36-48 hrs
Escherichia coli [29] = experiment: Antimicrobial activity against Escherichia coli incubated for 36 to 48 hrs under dark conditions; format: functional, organism-based; settings: time 36-48 hrs
Candida albicans [30] = experiment: Antimicrobial activity against Candida albicans incubated for 36 to 48 hrs under dark conditions; format: functional, organism-based; settings: time 36-48 hrs
Staphylococcus aureus [31] = experiment: Antimicrobial activity against methicillin resistant Staphylococcus aureus incubated for 36 to 48 hrs under dark conditions; format: functional, organism-based; settings: time 36-48 hrs
HaCaT [32] = experiment: Dark toxicity in human HaCaT cells assessed as reduction in cell viability incubated for 30 mins under dark conditions by MTT assay; format: cell-based; settings: 0.5 h
HaCaT [33] = experiment: Phototoxicity against human HaCaT cells assessed as reduction in cell viability preincubated for 30 mins followed by irradiation with 6J/cm2 light and measured after 24 hrs by MTT assay; format: cell-based; settings: light or radiation study
Staphylococcus aureus [34] = experiment: Light dose-dependent antimicrobial activity against Staphylococcus aureus at 2 to 4 uM preincubated for 10 mins in dark followed by irradiation with 0.6 to 6J/cm2 light dose incubated for 36 to 48 hrs; format: functional, organism-based; settings: dose 2-4 µM, time 2170-2890 min
Escherichia coli [35] = experiment: Light dose-dependent antimicrobial activity against Escherichia coli at 2 to 4 uM preincubated for 10 mins in dark followed by irradiation with 0.6 to 6J/cm2 light dose incubated for 36 to 48 hrs; format: functional, organism-based; settings: dose 2-4 µM, time 2170-2890 min
Candida albicans [36] = experiment: Light dose-dependent antimicrobial activity against Candida albicans at 2 to 4 uM preincubated for 10 mins in dark followed by irradiation with 0.6 to 9J/cm2 light dose incubated for 36 to 48 hrs; format: functional, organism-based; settings: dose 2-4 µM, time 2170-2890 min
Staphylococcus aureus [37] = experiment: Light dose-dependent antimicrobial activity against methicillin-resistant Staphylococcus aureus at 2 to 4 uM preincubated for 10 mins in dark followed by irradiation with 0.6 to 6J/cm2 light dose incubated for 36 to 48 hrs; format: functional, organism-based; settings: dose 2-4 µM, time 2170-2890 min

SMILES | logP at 24 h [1] | Activity [5] | MIC (Staphylococcus aureus [6]) [µM] | MIC (Escherichia coli [7]) [µM] | MIC (Candida albicans [8]) [µM] | MIC (Staphylococcus aureus [9]) [µM] | Activity (Staphylococcus aureus [10]) [%] | Activity (Escherichia coli [11]) [%] | Activity (Candida albicans [12]) [%] | Activity (Staphylococcus aureus [13]) | Activity (Escherichia coli [14]) | Activity (Candida albicans [15]) | Activity (Staphylococcus aureus [18]) | Activity (Escherichia coli [19]) | Activity (Candida albicans [20]) | Activity (Staphylococcus aureus [21]) | Activity (Cell membrane [22]) | Activity (Cell membrane [23]) | other results
CC1=CC(C)=[N+]2C1=Cc1c(C)cc(C)n1[B-]2(OCCC[N+](C)(C)C)OCCC[N+](C)(C)C.[I-].[I-] | -1.17 | – | – | – | – | – | – | – | – | – | – | – | – | – | – | – | – | – | Drug uptake [2]: Active
CC1=CC(C)=[N+]2C1=Cc1c(C)cc(C)n1[B-]2(C#CC[N+](C)(C)C)C#CC[N+](C)(C)C.[I-].[I-] | -1.97 | – | – | – | – | – | – | – | – | – | – | – | – | – | – | – | – | – | Drug uptake [2]: Active; Drug uptake [3]: Active
CC1=C(I)C(C)=[N+]2C1=Cc1c(C)c(I)c(C)n1[B-]2(OCCc1cc[n+](C)cc1)OCCc1cc[n+](C)cc1 | -1.14 | 0.74 | 20 | 0.625 | 40 | 20 | 55 | 51.9 | 34 | inactive | inactive | inactive | inactive | inactive | inactive | inactive | Active | Active | Activity (Cell membrane [4]): inactive; Activity (Cell membrane [16]): Active; Activity (Candida albicans [17]): inactive
CC1=C(I)C(C)=[N+]2C1=Cc1c(C)c(I)c(C)n1[B-]2(OCCC[N+](C)(C)C)OCCC[N+](C)(C)C | -1.01 | 0.68 | 30 | 40 | 40 | 20 | 51.8 | 38.9 | 53.6 | inactive | inactive | inactive | inactive | inactive | inactive | inactive | Active | Active | –
CC1=C(I)C(C)=[N+]2C1=Cc1c(C)c(I)c(C)n1[B-]2(OCCCc1cc[n+](C)cc1)OCCCc1cc[n+](C)cc1 | -0.91 | 0.74 | 1.25 | 1.25 | 5 | 1.25 | – | – | – | – | – | – | inactive | inactive | inactive | inactive | – | – | –
CC1=C(I)C(C)=[N+]2C1=Cc1c(C)c(I)c(C)n1[B-]2(C#Cc1ccc[n+](C)c1)C#Cc1ccc[n+](C)c1 | -0.27 | 0.65 | 1.25 | 1.25 | 0.625 | 0.625 | – | – | – | – | – | – | inactive | inactive | inactive | inactive | – | – | –
CC1=C(I)C(C)=[N+]2C1=Cc1c(C)c(I)c(C)n1[B-]2(C#CC[N+](C)(C)C)C#CC[N+](C)(C)C.[I-].[I-] | -1.21 | 0.68 | 1.25 | 0.625 | 1.25 | 1.25 | 85.3 | 71 | 90.8 | inactive | inactive | inactive | inactive | inactive | inactive | inactive | Active | Active | Activity (Cell membrane [4]): Active; Activity (Staphylococcus aureus [24]): Dose-dependent effect; Activity (Escherichia coli [25]): Dose-dependent effect; Activity (Candida albicans [26]): Dose-dependent effect; Activity (Staphylococcus aureus [27]): Dose-dependent effect; Activity (Staphylococcus aureus [28]): inactive; Activity (Escherichia coli [29]): inactive; Activity (Candida albicans [30]): inactive; Activity (Staphylococcus aureus [31]): inactive; Activity (Cell membrane [16]): Active; Activity (Candida albicans [17]): Active; Activity (HaCaT [32]): Non-Toxic; IC50 (HaCaT [33]): 4 µM; Activity (Staphylococcus aureus [34]): Active; Activity (Escherichia coli [35]): Active; Activity (Candida albicans [36]): Active; Activity (Staphylococcus aureus [37]): Active
